Assays:
Assay in all cases: liposome co-sedimentation, anti-Sec2 western blot
Type in all cases: binding
[1] = biological target: T1, Sec2p (Saccharomyces cerevisiae, UniProt P17065); conditions: GST-Sec2; liposomes with 10 mol% PI4P; PBS, 0.4 mg/ml BSA, 25 °C
T1 sequence (P17065 1-759): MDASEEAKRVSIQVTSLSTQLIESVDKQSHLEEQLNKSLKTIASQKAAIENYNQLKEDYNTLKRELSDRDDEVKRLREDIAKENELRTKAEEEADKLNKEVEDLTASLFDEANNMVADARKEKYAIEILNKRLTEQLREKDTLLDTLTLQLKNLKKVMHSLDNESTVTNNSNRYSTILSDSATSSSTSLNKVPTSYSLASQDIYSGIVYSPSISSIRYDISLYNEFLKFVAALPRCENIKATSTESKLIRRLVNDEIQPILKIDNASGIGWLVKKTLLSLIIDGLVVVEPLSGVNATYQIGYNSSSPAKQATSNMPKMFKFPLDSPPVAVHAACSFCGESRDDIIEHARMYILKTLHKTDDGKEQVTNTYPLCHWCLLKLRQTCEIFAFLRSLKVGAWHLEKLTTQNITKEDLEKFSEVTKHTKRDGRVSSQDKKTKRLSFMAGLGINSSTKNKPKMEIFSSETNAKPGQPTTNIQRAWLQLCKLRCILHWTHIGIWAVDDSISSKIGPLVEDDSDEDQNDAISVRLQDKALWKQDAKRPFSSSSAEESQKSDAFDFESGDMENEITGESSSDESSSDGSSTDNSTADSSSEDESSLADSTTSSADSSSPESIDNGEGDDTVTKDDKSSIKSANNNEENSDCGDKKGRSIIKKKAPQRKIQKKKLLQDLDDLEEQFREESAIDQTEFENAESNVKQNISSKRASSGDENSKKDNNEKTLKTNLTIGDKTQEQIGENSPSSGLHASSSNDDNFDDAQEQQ

[2] = biological target: T1, Sec2p; conditions: GST-Sec2; liposomes with 10 mol% PI4P; PBS, 0.4 mg/ml BSA, 25 °C; remark: listed apart in the source
[3] = biological target: T1, Sec2p; conditions: GST-Sec2; liposomes with 10 mol% PI4P; PBS, 0.4 mg/ml BSA, 25 °C; remark: listed apart in the source
[4] = biological target: T1, Sec2p; conditions: read-out: approximate Kd; GST-Sec2p; 0.05-0.5 mM liposomes with 10 mol% PI4P; PBS, 0.4 mg/ml BSA, 25 °C

PI4P
PI4P-binding affinity, % of wildtype [1]: ~ 30% | PI4P-binding, % of wildtype [2]: ~ 10% | PI4P-binding affinity, % of wildtype [3]: ~ 30% | Kd [4]: ~185 µM

Reference: article PMC2877039 (Developmental cell, 2010)
